Measurements as given in PMC10384408, “Anticancer Tungstenocenes with a Diverse Set of (O,O–), (O,S–) and (O,N–) Chelates—A Detailed Biological Study Using an Improved Evaluation via 3D Spheroid Models” (Pharmaceutics, 2023).

How the values were obtained:
[1] = tested on: CH1/PA-1 (ovarian teratocarcinoma) cells; test: MTT cytotoxicity assay, CH1/PA-1 monolayer; assay type: cell-based, human; conditions: exposure time 96 h, mean ± SD
Protocol: (§1) CH1/PA-1 (ovarian teratocarcinoma), SW480 (colon carcinoma) and A549 (non-small cell lung cancer) cells were maintained as described in the reference. IMR-90 human fetal lung fibroblasts (from the European Collection of Authenticated Cell Cultures, Porton Down, Salisbury, UK) were cultured in Stable Cell^TM DMEM/F12 supplemented with 0.01 mg/mL human recombinant insulin (both purchased from Sigma-Aldrich) and 10% fetal bovine serum (FBS, BioWest, Nuaillé, France). Human colon carcinoma cell lines HCT116 and HT29 (both kindly provided by the Institute of Cancer Research, Department of Medicine I, Medical University of Vienna, Austria) were cultured in McCoy’s 5a medium supplemented with 4 mM L-glutamine (both purchased from Sigma-Aldrich) and 10% FBS. MCF-7 human breast adenocarcinoma cells (kindly provided by M. Ogris, Department of Pharmaceutical Sciences, University of Vienna, Austria) were maintained in DMEM (high glucose) supplemented with 4 mM L-glutamine, 0.1 mg/mL human insulin (all purchased from Sigma-Aldrich) and 10% FBS. All cell lines were grown as monolayers in 75 cm^2 culture flasks (CytoOne, Starlab, Hamburg, Germany) at 37 °C in a humidified atmosphere containing 5% CO2.
(§2) Exponentially growing cells were plated into 96-well microculture plates (CytoOne, tissue culture treated, Starlab, Hamburg, Germany) in densities of 1 × 10^3 CH1/PA-1, 2 × 10^3 SW480, 3 × 10^3 A549 and 7 × 10^3 IMR-90 cells per well (each in 100 µL). After a 24 h preincubation, drugs were added in serial dilution to give a final volume of 200 µL/well and exposed for 96 h. At the end of the exposure, the drug solutions were replaced by 100 µL RPMI 1640/MTT mixture (7:1 ratio). MTT (3-(4,5-dimethylthiazol-2-yl)-2,5-diphenyl-2H-tetrazolium bromide), (Acros Organics, Geel, Belgium) solution was prepared in phosphate-buffered saline (5 mg/mL) and mixed with RPMI1640 medium supplemented with 4 mM L-glutamine (both from Sigma-Aldrich) and 10% FBS. After 4 h incubation, the formazan crystals were solubilized in 150 µL of DMSO per well. Absorbance was measured at 550 nm (and at 690 nm as a reference) with a microplate reader (ELx808, BioTek, Winoosky, VT, USA) and Gen5^TM 3.08 software (BioTek). The 50% inhibitory concentrations (IC50) relative to untreated controls were interpolated from concentration-effect curves. At least three biologically and technically independent experiments were performed.

[2] = tested on: HT29 multicellular tumor spheroids; test: Resazurin assay, HT29 3D spheroids; assay type: cell-based, human; conditions: 96 h; for IC50: spheroids
Protocol: as §1
(§3) For growing multicellular tumor spheroids, 400 HCT116, 400 HT29 or 800 MCF-7 cells per well were plated into round-bottom ultra-low attachment 96-well plates (Corning, Glendale, AZ, USA) in the media described above and incubated at 37 °C for 96 h. Spheroids were treated with 10 µM of the two most cytotoxic compounds 3 and 4 for another 96 h. The diameters of the spheroids were measured with Cell^F software under a CKX41 Olympus microscope before treatment and in constant daily intervals over the 96 h treatment period. For statistical analysis the t-test with Welsh’s correction was implemented in GraphPad Prism software (Version 6.01).
(§4) For the resazurin assay in monolayer cultures, cells were seeded into 96-well microculture plates (CytoOne, tissue culture treated, Starlab, Hamburg, Germany) in densities of 2 × 10^3 HCT116, 2 × 10^3 HT29 and 4 × 10^3 MCF-7 cells per well (each in 100 µL). For tests in 3D cultures, spheroids were grown as described above. After 24 h (for monolayers) or 4 days (for spheroids) the test compounds in the appropriate medium were added in serial dilution to the plates to obtain a total volume of 200 µL/well. Wells without cells, containing medium and resazurin (Alfa Aesar, Thermo Fisher, Kandel, Germany) solution were used as blanks. After 96 h exposure 20 µL of the resazurin solution (440 µM) were added to each well, followed by a 4 h (2D) or 12 h (3D) incubation period. Resorufin fluorescence was quantified at 530 nm (and a reference wavelength of 620 nm) by using a microplate reader (Synergy HT, BioTek) with Gen5^TM 3.10 software (BioTek).

HT29 cells [3] = test: Annexin V-FITC/PI apoptosis assay, HT29; conditions: HT29, 24 h; for ∑apoptotic cells [%]: sum of early and late
HCT116 cells = test: Resazurin assay, HCT116 2D monolayer; assay type: cell-based, human; conditions: 96 h
Protocol: as §1, §4

[4] = Solubility in PBS (1% DMSO); assay type: physicochemical
Protocol: Stock solutions in DMSO of compounds 1–10 were utilized to determine the solubility in PBS by adding 1 vol% of the stock solution to a suitable amount of PBS. […] UV/Vis data were recorded on a Perkin Elmer Lambda 650 UV/Vis Spectrophotometer with a Peltier element for temperature control.

[5] = tested on: MCF-7 multicellular tumor spheroids; test: Resazurin assay, MCF-7 3D spheroids; assay type: cell-based, human; conditions: 96 h; for IC50: spheroids
Protocol: as §1, §3, §4

[6] = tested on: SW480 (colon carcinoma) cells; test: MTT cytotoxicity assay, SW480 monolayer; assay type: cell-based, human; conditions: exposure time 96 h, mean ± SD
Protocol: as §1, §2

HT29 cells [7] = test: Resazurin assay, HT29 2D monolayer; assay type: cell-based, human; conditions: 96 h
Protocol: as §1, §4

MCF-7 cells [8] = test: Annexin V-FITC/PI apoptosis assay, MCF-7; conditions: MCF-7, 24 h; for ∑apoptotic cells [%]: sum of early and late
MCF-7 cells [9] = test: Resazurin assay, MCF-7 2D monolayer; assay type: cell-based, human; conditions: 96 h
Protocol: as §1, §4

For `F[P-](F)(F)(F)(F)F.[O-]c1c(-c2ccc(Cl)cc2)oc2ccccc2c1=S.[W+4].c1cc[cH-]c1.c1cc[cH-]c1` [Compound 4, Bis(η^5-cyclopentadienyl)[2-(4-chlorophenyl)-3-(oxo-κO)-4(H)-chromen-4-thionato-κS]tungsten(IV) hexafluorophosphate], the IC50 [1] was 1.6 ± 0.5 µM, the “ratio 3D/2D of IC50 values, HT29” value [2] was 5.6 and the IC50 [2] was 31 ± 6 µM. The “early apoptotic cells [%] AV+ / PI-” value (HT29 cells [3]; 2 µM) was 3.7 ± 3.2%, the “late apoptotic cells [%] AV+ / PI+” value (HT29 cells [3]; 2 µM) was 4.8 ± 1.3% and the “necrotic cells [%] AV- / PI+” value (HT29 cells [3]; 2 µM) was 5.4 ± 5.0%. The “viable cells [%] AV- / PI-” value (HT29 cells [3]; 2 µM) was 86.2 ± 3.1%, the “∑apoptotic cells [%]” value (HT29 cells [3]; 2 µM) was 8.5% and the “early apoptotic cells [%] AV+ / PI-” value (HT29 cells [3]; 20 µM) was 16.8 ± 5.2%. The “late apoptotic cells [%] AV+ / PI+” value (HT29 cells [3]; 20 µM) was 19.5 ± 2.0%, the “necrotic cells [%] AV- / PI+” value (HT29 cells [3]; 20 µM) was 13.3 ± 5.1% and the “viable cells [%] AV- / PI-” value (HT29 cells [3]; 20 µM) was 50.4 ± 4.1%. The IC50 (HCT116 cells) was 6 ± 0.9 µM, the “Solubility in PBS (1% DMSO)” value [4] was 10 µg/mL and the “ratio 3D/2D of IC50 values, MCF-7” value [5] was 7.0. It also gave an IC50 [5] of 19 ± 2 µM, an IC50 [6] of 2.4 ± 0.5 µM and an IC50 (HT29 cells [7]) of 5.5 ± 1 µM. The “early apoptotic cells [%] AV+ / PI-” value (MCF-7 cells [8]; 2 µM) was 1.0 ± 0.8%, the “late apoptotic cells [%] AV+ / PI+” value (MCF-7 cells [8]; 2 µM) was 3.4 ± 1.2% and the “necrotic cells [%] AV- / PI+” value (MCF-7 cells [8]; 2 µM) was 1.8 ± 0.0%. The “viable cells [%] AV- / PI-” value (MCF-7 cells [8]; 2 µM) was 93.9 ± 2.1%, the “∑apoptotic cells [%]” value (MCF-7 cells [8]; 2 µM) was 4.4% and the “early apoptotic cells [%] AV+ / PI-” value (MCF-7 cells [8]; 10 µM) was 1.2 ± 0.5%. For the same molecule, the “late apoptotic cells [%] AV+ / PI+” value (MCF-7 cells [8]; 10 µM) was 12.0 ± 2.0%, the “necrotic cells [%] AV- / PI+” value (MCF-7 cells [8]; 10 µM) was 11.7 ± 4.7% and the “viable cells [%] AV- / PI-” value (MCF-7 cells [8]; 10 µM) was 75.2 ± 2.2%. The “∑apoptotic cells [%]” value (MCF-7 cells [8]; 10 µM) was 13.2%, the “early apoptotic cells [%] AV+ / PI-” value (MCF-7 cells [8]; 20 µM) was 1.0 ± 0.4% and the “late apoptotic cells [%] AV+ / PI+” value (MCF-7 cells [8]; 20 µM) was 15.1 ± 3.3%. For the same molecule, the “necrotic cells [%] AV- / PI+” value (MCF-7 cells [8]; 20 µM) was 33.8 ± 14.5%, the “viable cells [%] AV- / PI-” value (MCF-7 cells [8]; 20 µM) was 50.2 ± 10.8% and the “early apoptotic cells [%] AV+ / PI-” value (MCF-7 cells [8]; 50 µM) was 0.0 ± 0.0%. The “late apoptotic cells [%] AV+ / PI+” value (MCF-7 cells [8]; 50 µM) was 43.4 ± 3.7%, the “necrotic cells [%] AV- / PI+” value (MCF-7 cells [8]; 50 µM) was 51.5 ± 10.3% and the “viable cells [%] AV- / PI-” value (MCF-7 cells [8]; 50 µM) was 5.0 ± 6.6%. The “∑apoptotic cells [%]” value (MCF-7 cells [8]; 50 µM) was 43.4% and the IC50 (MCF-7 cells [9]) was 2.7 ± 0.7 µM.
With `F[P-](F)(F)(F)(F)F.O=C([O-])c1ccccn1.[W+4].c1cc[cH-]c1.c1cc[cH-]c1` [Compound 5, Bis(η^5-cyclopentadienyl)[2-(carboxylato-κO)-pyridine-κN]tungsten(IV) hexafluorophosphate] the IC50 [1] was > 200 µM, the IC50 [2] was > 200 µM and the “early apoptotic cells [%] AV+ / PI-” value (HT29 cells [3]; 200 µM) was 0.9 ± 0.7%. The “late apoptotic cells [%] AV+ / PI+” value (HT29 cells [3]; 200 µM) was 5.3 ± 6.9%, the “necrotic cells [%] AV- / PI+” value (HT29 cells [3]; 200 µM) was 2.3 ± 1.5% and the “∑apoptotic cells [%]” value (HT29 cells [3]; 200 µM) was 6.2%. The IC50 (HCT116 cells) was > 200 µM, the “Solubility in PBS (1% DMSO)” value [4] was 180 µg/mL and the IC50 [5] was > 200 µM. For the same molecule, the IC50 [6] was 147 ± 21 µM, the IC50 (HT29 cells [7]) was > 200 µM and the “early apoptotic cells [%] AV+ / PI-” value (MCF-7 cells [8]; 200 µM) was 1.3 ± 0.7%. For the same molecule, the “late apoptotic cells [%] AV+ / PI+” value (MCF-7 cells [8]; 200 µM) was 7.9 ± 5.3%, the “necrotic cells [%] AV- / PI+” value (MCF-7 cells [8]; 200 µM) was 4.2 ±2.2% and the “∑apoptotic cells [%]” value (MCF-7 cells [8]; 200 µM) was 9.2%. For the same molecule, the IC50 (MCF-7 cells [9]) was > 200 µM.
